Source: publication PMC12246613, “Molecular basis of acyl-CoA ester recognition by α-methylacyl-CoA racemase from Mycobacterium tuberculosis” (The Journal of Biological Chemistry, 2025)
Where “and” joins values, the source holds several entries; their conditions need not be identical. Identical values can stand only once.

Experiments:
human AMACR 1A = details: cited from earlier work
[1] = target: T1, MCR (α-methylacyl-CoA racemase from Mycobacterium tuberculosis) (Mycobacterium tuberculosis, UniProt O06543); assay: Kinetic assay (Ki and mode of inhibition, colorimetric assay); assay type: biochemical; parameters: made in house
T1 sequence (O06543 whole entry): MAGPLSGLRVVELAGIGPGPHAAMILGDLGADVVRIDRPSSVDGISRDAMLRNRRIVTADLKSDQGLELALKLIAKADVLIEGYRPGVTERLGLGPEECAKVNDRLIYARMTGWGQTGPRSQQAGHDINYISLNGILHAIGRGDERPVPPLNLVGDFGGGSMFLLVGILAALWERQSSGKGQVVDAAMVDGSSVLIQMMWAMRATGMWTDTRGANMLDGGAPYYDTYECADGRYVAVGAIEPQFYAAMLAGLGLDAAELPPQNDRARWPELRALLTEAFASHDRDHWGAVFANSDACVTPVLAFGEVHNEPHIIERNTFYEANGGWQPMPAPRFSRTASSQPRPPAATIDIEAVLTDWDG
Experimental: Data was collected as previously described using ibuprofenoyl-CoA 1 at 0, 3.2, 10, and 32 μM, 3.12 nM MCR, and 50.2 to 576 μM substrate (final concentrations) in 50 mM NaH2PO4-NaOH, 100 mM NaCl, and 1 mM EDTA, pH 7.4 and 3% (v/v) DMSO. Enzyme and inhibitor stock solutions were pre-incubated together for 10 min before initiating the assay. Rates were determined using ICEKAT ([46], [47]), with logarithmic fit of the data and correction of rates for delays between reaction initiation and first read. Data was analyzed using SigmaPlot 15.0 using Simple EK and the enzyme kinetics macro, with the correct inhibition model selected using graphs (Fig. S19, A–G) and statistical ranking of models. The determined Ki value is the mean ± SEM for three independent repeats.

[2] = target: T1, MCR (α-methylacyl-CoA racemase from Mycobacterium tuberculosis); assay: Jump-dilution experiment (reversibility of inhibition); assay type: biochemical; parameters: made in house; details: 12-min time-course, inhibitor at 6x or 0.06x the IC50
[3] = target: T1, MCR (α-methylacyl-CoA racemase from Mycobacterium tuberculosis); assay: Colorimetric inhibition assay, dose-response curves; details: for Max % (coefficient): fitted maximum % activity; for Min % (coefficient): fitted minimum % activity; for Hillslope (coefficient): 4-parameter logistic fit; for pIC50 lower than expected based on LogP: from plot of pIC50 vs. calculated LogP
[4] = target: T1, MCR (α-methylacyl-CoA racemase from Mycobacterium tuberculosis); assay: Deuterium-exchange assay (substrate α-proton exchange, 1H NMR); assay type: biochemical; parameters: made in house; details: 100 μM acyl-CoA, 2.34 nM MCR, ca. 85% 2H2O, 30 °C
Experimental: Exchange of substrate α-protons was assessed using the deuterium-exchange assay as previously described ([19], [32]). Assay mixtures contained 55 ng (2.34 nM) of active or heat-inactivated MCR, 100 μM acyl-CoA, 50 mM NaH2PO4-NaOH, pH 7.4 and ca. 85% (v/v) ^2H2O in a total volume of 600 μl. Fenoprofenoyl-CoA 2 was used as a positive control. Reactions were initiated by the addition of enzyme, and reaction mixtures were incubated at 30 °C for 1 h before quenching at 55 °C for 10 min. NMR data were collected on a Bruker Avance Neo operating at 500.13 MHz for proton at 25 °C. Solvent suppression was achieved using a pre-saturation experiment. Typically, 128 transients were recorded. Data were processed using Topspin 4.0.7. Analysis of deuterium-exchange is based upon changes in intensity of either the substrate methine protons in the α-position or by the effects of the loss of those α-proton on a coupled methyl group.

MCR = tested on: MCR; parameters: method as in PMID 26759836; details: cited from earlier work
[5] = LogIC50 (coefficient), individual independent repeats 1-3, 4-parameter logistic fit of mean % activity (2 technical repeats)
[6] = individual independent repeats 1-3
[7] = pIC50, mean ± SEM, n = 3, colorimetric assay, 96 μM substrate, 3.12 nM MCR, 10 min pre-incubation

SMILES: CC(C)Cc1ccc(C(C)C(=O)SCCNC(=O)CCNC(=O)C(O)C(C)(C)COP(=O)(O)OP(=O)(O)OCC2OC(n3cnc4c(N)ncnc43)C(O)C2OP(=O)(O)O)cc1 (racemic) [compound 1, ±-Ibuprofenoyl-CoA]
- Ki (human AMACR 1A; human AMACR 1A, mean ± SEM, n = 1): 0.06 ± 0.00478 µM
- Ki ([1]; individual repeats 1-3, inhibitor 0, 3.2, 10, 32 μM, 50.2 to 576 μM substrate): 3.06 µM and 2.44 µM and 3.62 µM
- Ki ([1]; mean ± SEM, n = 3, competitive inhibition model): 3.04 ± 0.34 µM
- mode of inhibition ([1]; Lineweaver-Burk plot and statistical ranking of models): competitive inhibition
- reversibility of inhibition [2]: reversible inhibition
- IC50 [3, 5]: 10.9 µM and 8.94 µM and 7.48 µM
- potency on MCR relative to human AMACR (fold less potent) ([3]; MCR versus human AMACR): ~20 fold
- Max % (coefficient) [3, 6]: 105.5482% and 98.8641% and 101.2444%
- Min % (coefficient) [3, 6]: 2.6168% and 2.9187% and 2.6510%
- Hillslope (coefficient) [3, 6]: -0.9604 and -0.9180 and -0.9734
- IC50 [3, 7]: 8.91 µM

SMILES: CC(C(=O)SCCNC(=O)CCNC(=O)C(O)C(C)(C)COP(=O)(O)OP(=O)(O)OCC1OC(n2cnc3c(N)ncnc32)C(O)C1OP(=O)(O)O)c1cccc(Oc2ccccc2)c1 (racemic) [compound 2, ±-Fenoprofenoyl-CoA]
- relative inhibitor potency (human AMACR 1A; human AMACR): most potent inhibitor
- IC50 [3, 5]: 20.4 µM and 11.7 µM and 14.2 µM
- Max % (coefficient) [3, 6]: 99.3868% and 110.2399% and 93.4385%
- Min % (coefficient) [3, 6]: -1.0173% and 2.2137% and -0.7388%
- Hillslope (coefficient) [3, 6]: -0.8331 and -0.7292 and -0.8187
- IC50 [3, 7]: 15.1 µM

SMILES: CC(C(=O)SCCNC(=O)CCNC(=O)C(O)C(C)(C)COP(=O)(O)OP(=O)(O)OCC1OC(n2cnc3c(N)ncnc32)C(O)C1OP(=O)(O)O)c1ccc(-c2ccccc2)c(F)c1 (racemic) [compound 4, ±-Flurbiprofenoyl-CoA]
- IC50 [3, 5]: 13.1 µM and 21.1 µM and 21.2 µM
- Max % (coefficient) [3, 6]: 97.7981% and 95.9188% and 94.6575%
- Min % (coefficient) [3, 6]: 1.7221% and 0.8368% and 2.1053%
- Hillslope (coefficient) [3, 6]: -0.9708 and -1.0277 and -1.0055
- IC50 [3, 7]: 18.2 µM

SMILES: CC(C(=O)SCCNC(=O)CCNC(=O)C(O)C(C)(C)COP(=O)(O)OP(=O)(O)OCC1OC(n2cnc3c(N)ncnc32)C(O)C1OP(=O)(O)O)c1cccc(C(=O)c2ccccc2)c1 (centres unmarked) [compound 3, S-Ketoprofenoyl-CoA]
- IC50 [3, 5]: 31.5 µM and 30.8 µM
- Max % (coefficient) [3, 6]: 100.4116% and 96.3493% and 103.0106%
- Min % (coefficient) [3, 6]: -9.0253% and -2.7332% and -8.7722%
- pIC50 lower than expected based on LogP [3]: approximately 0.3
- Hillslope (coefficient) [3, 6]: -0.6349 and -0.7776 and -0.7146
- IC50 [3, 7]: 31.6 µM

SMILES: COc1ccc2cc(C(C)C(=O)SCCNC(=O)CCNC(=O)C(O)C(C)(C)COP(=O)(O)OP(=O)(O)OCC3OC(n4cnc5c(N)ncnc54)C(O)C3OP(=O)(O)O)ccc2c1 (centres unmarked) [compound 5, S-Naproxenoyl-CoA]
- IC50 [3, 5]: 19.5 µM and 15.6 µM and 15.5 µM
- Max % (coefficient) [3, 6]: 99.5824% and 102.2413% and 102.0390%
- Min % (coefficient) [3, 6]: -0.6400% and -0.5309% and -2.7274%
- pIC50 lower than expected based on LogP [3]: approximately 0.3
- Hillslope (coefficient) [3, 6]: -0.7858 and -0.8072 and -0.6833
- IC50 [3, 7]: 17 µM

SMILES: CCCCCCCCC(C)C(=O)SCCNC(=O)CCNC(=O)[C@H](O)C(C)(C)COP(=O)(O)OP(=O)(O)OC[C@H]1O[C@@H](n2cnc3c(N)ncnc32)[C@H](O)[C@@H]1OP(=O)(O)O (some centres unmarked) [compound 6, S-2-Methyldecanoyl-CoA]
- IC50 [3, 5]: 62.8 µM and 67.4 µM and 46.5 µM
- Max % (coefficient) [3, 6]: 104.1285% and 101.8704% and 101.0137%
- Min % (coefficient) [3, 6]: 10.2466% and 13.4630% and 9.4607%
- Hillslope (coefficient) [3, 6]: -1.5837 and -2.4923 and -1.4587
- IC50 [3, 7]: 58.9 µM

SMILES: CCCCCCCCCC(=O)SCCNC(=O)CCNC(=O)C(O)C(C)(C)COP(=O)(O)OP(=O)(O)OCC1OC(n2cnc3c(N)ncnc32)C(O)C1OP(=O)(O)O (centres unmarked) [compound 7, Decanoyl-CoA]
- IC50 [3, 7]: ~100 µM

SMILES: CCCCCCCC(=O)SCCNC(=O)CCNC(=O)C(O)C(C)(C)COP(=O)(O)OP(=O)(O)OCC1OC(n2cnc3c(N)ncnc32)C(O)C1OP(=O)(O)O (centres unmarked) [compound 8, Octanoyl-CoA]
- IC50 [3, 7]: ~100 µM

SMILES: CCCCCC(=O)SCCNC(=O)CCNC(=O)C(O)C(C)(C)COP(=O)(O)OP(=O)(O)OCC1OC(n2cnc3c(N)ncnc32)C(O)C1OP(=O)(O)O (centres unmarked) [compound 9, Hexanoyl-CoA]
- IC50 [3, 7]: ~316 µM

SMILES: CCCC(=O)SCCNC(=O)CCNC(=O)C(O)C(C)(C)COP(=O)(O)OP(=O)(O)OCC1OC(n2cnc3c(N)ncnc32)C(O)C1OP(=O)(O)O (centres unmarked) [compound 10, n-Butanoyl-CoA]
- IC50 [3, 7]: ~562 µM

SMILES: CC(=O)SCCNC(=O)CCNC(=O)C(O)C(C)(C)COP(=O)(O)OP(=O)(O)OCC1OC(n2cnc3c(N)ncnc32)C(O)C1OP(=O)(O)O (centres unmarked) [compound 11, Acetyl-CoA]
- IC50 [3, 7]: ~1000 µM

SMILES: CC(C)C(=O)SCCNC(=O)CCNC(=O)C(O)C(C)(C)COP(=O)(O)OP(=O)(O)OCC1OC(n2cnc3c(N)ncnc32)C(O)C1OP(=O)(O)O (centres unmarked) [compound 12, Isobutanoyl-CoA]
- α-proton exchange [4]: significant α-proton exchange
- IC50 [3, 7]: ~1000 µM

SMILES: CC(C)(COP(=O)(O)OP(=O)(O)OC[C@H]1O[C@@H](n2cnc3c(N)ncnc32)[C@H](O)[C@@H]1OP(=O)(O)O)[C@@H](O)C(=O)NCCC(=O)NCCSC(=O)C(c1ccccc1)c1ccccc1 [diphenylacetyl-CoA]
- α-proton exchange (MCR): did not undergo α-proton exchange
